In patent US5792742A, “Fibrin-binding peptide fragments of fibronectin” (New York University, priority 1994, dated 1998):
Entries after “also recorded” stand apart in the source; their conditions may differ. Like-named read-outs stand apart in the source and are kept apart here. Each block holds one substance with its values, some of them ahead of it.

Key:
[1] = tested on: fibrin; test: Fibrin-SEPHAROSE affinity chromatography (binding and elution); design: species or system bovine
Method: Bovine fibrinogen was cross-linked to CNBr-activated SEPHAROSE™ (5 mg/ml beads) according to the manufacturer's instructions. Coupled fibrinogen was subsequently converted to fibrin by incubation with human thrombin to a final concentration of 5 NIH units/ml and 100 K.I. (kallikrein inhibitory) units/ml of aprotinin (in 0.05M Tris-HCI buffer, pH 7.6, containing 0.1M NaCl and 0.01M EDTA) for three hours, at room temperature (Gold, et al. (1983) Biochemistry 22, 4113-4119).
1.0M NaCl in 0.05M tris buffer, pH 8.0.
The fibrin-binding activity of the proteolytically derived 25.9 kDa fragment of Fn was determined by its ability to bind to a fibrin affinity matrix. […] FBB was used to equilibrate and wash the column. Following warming of the column to 22° C., the column was washed with FBB until absorbance at 280 nm (A280) was less than 0.01, and bound protein eluted with 0.05M Tris-HCl, 0.5M NaCl, 6M urea buffer, pH 7.6.
The module (500 μg/1.0 ml) was incubated for 4 hours (while rotating) at 4° C. in the presence of 1.0 ml fibrin-SEPHAROSE™ (5 mg fibrin/ml SEPHAROSE™ beads) equilibrated in […] Tris-HCl, 0.1M NaCl buffer, pH 7.6.
The 11 KDa peptide (50 μg/0.206 ml) was radiolabeled using the IODO-BEAD method (Pierce Chemical). The peptide was added to one IODO-BEAD in the presence of 100 μCi ^125 I (17.4 Ci/mg, New England Nuclear) and incubated on ice for 10 minutes. The bead was removed and the free ^125 I removed by chromatography through a PD10 column containing SEPHADEX™ G-25 (Pharmacia). […] The radioiodinated 11 kDa fibrin-binding peptide (500 μg/1.5 ml) was combined with 1 ml of fibrin-SEPHAROSE™ (5 mg fibrin/ml beads) equilibrated with 50 mM Tris-HCl, 0.1M NaCl buffer, pH 7.6, and rotated for 4 hours, at 4° C. The mixture was poured onto a disposable column (0.6 cm×8.0) and the unbound protein washed through. The column was equilibrated to room temperature and washed with the equilibration buffer.

[2] = tested on: fibrin; test: Direct binding ELISA on fibrin-coated microtiter plates; details: for binding to fibrin-coated wells: ELISA, room temperature, 1 hr
Method: The preparation of fibrin coated microtiter plates was adapted from a method described by Christman et al., Biochim. Biophys. Acta. […] Microtiter (Immulon) plates were coated with fibrinogen at a concentration of 50-1000 ng/well/0.1 ml of Tris buffered saline (TBS). The plates were dried for 24 hours at 37° C. and 0.1 ml of thrombin (20 NIH units/100 ml) containing TRASYLOL™ (aprotinin) (400 K.I units/100 ml) in TBS was added to each well and the plates incubated for 2 hours at 37° C. Each well is washed one time with PBS and the plates are blocked for 1.5 hours with 1% BSA in TBS to prevent non-specific binding. A constant concentration of fibronectin and the 11 kDa fibrin-binding polypeptide (500 ng/0.1 ml) in 50 mM Tris-HCl, 0.1M NaCl, pH 7.6 (FBB) were incubated separately with fibrin coated microtiter wells (50-1000 ng) for 1 hr at room temperature (23° C.).
The wells were washed three times with FBB containing 0.05% Tween 20 (FBBT) and incubated for 1 hour with 0.05 ml of the a polyclonal anti-fibronectinantiserum (Calbiochem) or the purified IgG fraction of anti-11 kDa rabbit antisera, respectively, at a concentration of 1 μg/ml in FBBT containing 0.1% BSA (FBBT/BSA). Following three washes with FBBT, the wells were incubated with 0.05 ml of alkaline phosphatase labeled goat anti-rabbit IgG (TAGO) at a concentration of 2 μg/ml in FBBT/BSA, for 1 hour. The reaction was developed with 0.05 ml of […] p-nitrophenyl phosphate (Sigma phosphatase substrate tablets) in 10% diethanolamine, pH 9.8 containing 1 mM MgCl2.
2. […] Binding of ^4 F1.^5 F1 to fibrin coated microtiter plates was examined by ELISA as described above. Microtiter wells were coated with fibrin (50-1000 ng) and blocked, as described earlier, and incubated with the module pair ^4 F1.^5 F1 (500 ng/0.1 ml or 1000 ng/0.1 ml in FBB) for 1 hour, at room temperature.
Fibrin-binding activity was also assessed by an ELISA. Fn was reacted with fibrin-coated microtiter plates and bound Fn was determined by incubation with a polyclonal rabbit anti-Fn antiserum followed by alkaline phosphatase-labeled anti-rabbit Ig.

[3] = tested on: fibrin; details: for IC50: read-out: IC50, 50% inhibition of binding of biotinylated Fn to fibrin, 200 ng fibrin, 1 hour 22° C.
Method: Since the anti-Fn detection system described for the ELISA above could not be used in Fn competition assays employing the intact Fn molecule or the 25.8 kDa proteolytic fragment, purified Fn was biotinylated using water soluble NHS-LC-Biotin (Pierce Chemm. Co.; according to the manufacturer's instructions) and binding to fibrin detected by alkaline phosphatase conjugated streptavidin (diluted 1/500 in FBBT/BSA) for 1 hour at 22° C., followed by the addition of p-nitrophenyl phosphate, as described above. To ensure that the biotinylation of the Fn had not affected its ability to bind to fibrin, fibrin-binding activity was tested by incubating increasing concentrations of biotinylated Fn (10-300 ng/0.1 ml FBB) with the fibrin-coated wells (200 ng) and detected (see FIG. 28A) using alkaline phosphatase-conjugated streptavidin and the reaction developed as described for Direct Elisa.
To compare the relative fibrin-binding affinities of the ^4 F1.^5 F1 recombinant module pair and the 25.9 kDa proteolytic fragment (^1 F1-^5 F1) with that of the native Fn molecule, these purified proteins were competed with biotinylated plasma Fn for binding to fibrin coated wells and the extent of inhibition of binding assessed by incubation with alkaline phosphatase-conjugated streptavidin. […] Biotinylated Fn (100 ng/0.1 ml FBB: 2.3 nM) was combined with increasing concentrations (0-10 μM) of either unlabeled Fn, the 25.9 kDa proteolytic fragment, or the separate ^4 F1.^5 F1, and ^10 F1 recombinant modules and incubated with the fibrin-coated microtiter wells for 1 hour at 22° C. […] Bound biotinylated Fn was quantitated as described above.

[4] = tested on: fibrin; test: Binding of 35S-methionine labeled recombinant proteins (COS cell supernatants) to fibrin-SEPHAROSE, autoradiogram quantitation
Description: Recombinant proteins from both the N-terminal and C-terminal fibrin binding sites of the Fn molecule were expressed by transfection into ^35 S-labeled (methionine) COS cells, as described by Schwarzbauer, J. Cell Biol., 113:1463-1473 and Sottile et al, J. Biol. Chem., 266:12840-12843, (1991) and their fibrin-binding activity determined by affinity chromatography experiment. The ^35 S-methionive labeled protein from the N-terminal site was a 10.5 kDa protein that comprised the ^4 F1.^5 F1 modules (^4 F1.^5 F1). The ^35 S-methionive labeled 25 kDa recombinant protein from the C-terminal fibrin binding site of Fn expressed by the COS cells commenced in the ^10 F1 and extended to the end of the molecule (^10 F1-end). For the affinity chromatography experiments each of the cell culture supernatants that contained the separately expressed proteins (1.5 ml) were combined with 0.4 ml of a fibrin-SEPHAROSE affinity matrix and incubated overnight at 4 C. with end over rotation. Upon removal of the supernatant by centrifugation, the matrices were washed extensively with FBB (10 times with a 0.5 ml wash volume each ); after each wash the matrices were centrifuged and the supernatants removed. […] Aliquots (50 ul) of each fraction was counted in a LS 6000 Scintilation Counter, the corresponding fractions pooled, and analyzed by SDS-PAGE followed by autoradiography. The autoradiograms were exposed for two weeks and scanned with a pdi Desktop Scanner. […] As a control, to indicate the relative level of expression of the recombinant proteins and to confirm their position in the autoradiograms, an aliquot of each COS cell culture supernatant was immunoprecipited with an anti-fibronectin antibody and compared with the ^35 S-labeled proteins retained by the fibrin affinity chromatography matrices by SDS-PAGE and autoradiography. […] The Protein A-Sepharose beads were separated by centrifugation, washed two times with Tris-buffered saline, resuspended in Laemmli sample buffer and applied to SDS-PAGE.
FIG. 30 illustrates the binding of ^35 S-methionine labeled recombinant modules from both the N- (^4 F1.^5 F1) and C-terminal (^10 F1-end) fibrin binding sites of Fn to fibrin-SEPHAROSE affinity matrices. […] The results of the autoradiograms are represented by the graphs which indicate the image analysis of the bound recombinant proteins.

[5] = tested on: fibrin; test: ELISA: competitive inhibition of fibronectin binding to fibrin by type 1 recombinant modules; details: for maximum inhibition of Fn binding to fibrin: saturating concentration
Method: Fibrin-binding activity was also assessed by an ELISA. Fn was reacted with fibrin-coated microtiter plates and bound Fn was determined by incubation with a polyclonal rabbit anti-Fn antiserum followed by alkaline phosphatase-labeled anti-rabbit Ig. […] Thus, on a mole-per-mole basis, assuming complete attachment of all the fibrinogen applied to the polystyrene plate, total proteolytic conversion to fibrin, and accessibility of the binding sites, 0.8 moles of Fn per mole of fibrin were required to achieve maximum binding (assuming a molecular weight of 340 kDa for the fibrin hexamer and 440 kDa for the Fn dimer).
The recombinant Fn modules were used to inhibit the binding of Fn to the fibrin-coated microtiter plates. […] At this saturating concentration, the binding of Fn to fibrin was inhibited by 70%.

[6] = tested on: fibrin; test: Reversibility (displacement) of 125I-11 kDa FBP binding to fibrin; details: negative control
Method: Detachable microtiter wells previously coated with 15 ng of fibrin were incubated with 100 ng/0.1 ml FBB (90 nM) of ^125 I-11 kDa for 1 hour at 22° C. The unbound radiolabeled protein was removed by extensive washing with FBB containing 0.1% Tween 20. […] The iodinated 11 kDa that remained bound to the removable wells was determined by quantitating the radioactivity attached to the individual wells in a gamma counter. Results were expressed as percentage of control wells incubated with buffer alone.

[7] = 35S-methionine labeled, optical density of autoradiogram

Substance: ^4 F1.^5 F1: recombinant 93 amino acid module pair, fourth and fifth type 1 modules of human fibronectin, residues 152-244 of SEQ ID NO:1
elution of protein remaining bound after warming to 22° C. with 1.0M urea and finally 2.0M urea [1]: eluted all the remaining bound
elution of protein remaining bound after warming to 22° C. with 1.0M NaCl ([1]; 18% of total protein applied remained bound): could not be eluted
% of protein applied eluted on warming the column to 22° C. (room temperature) ([1]; FBB buffer): 9%
% of protein applied eluted with 0.5M NaCl, 6.0M urea buffer ([1]; after warming to 22° C.): 18%
% of protein applied retained by fibrin-SEPHAROSE ([1]; binding at 4° C., 500 μg applied): 27%
% of protein applied retained by fibrin-Sepharose with increasing amounts applied ([1]; increasing amounts applied to a fixed volume of fibrin-Sepharose): 25%
binding to fibrin-coated wells [2]: bound to fibrin
amount relative to antibody (w/w) used to obtain maximal inhibition [3]: 16 times
blocked binding of fibronectin to fibrin (summary, FIG. 29) [3]: 36%
maximal inhibition of biotinylated Fn binding to fibrin ([3]; 10 μM of protein (5,000 molar excess)): 67%
maximum inhibition of Fn binding to fibrin (FIG. 29) ([3]; 0.1-25 μg inhibitor, biotinylated Fn 100 ng, fibrin 200 ng): 67%
IC50 ([3]; biotinylated Fn 2.3 nM): 700 nM
relative affinity for fibrin [4]: lower affinity
% of bound protein released by warming to 22° C. [4, 7]: 88%
concentration at which maximum inhibition was achieved ([5]; Fn 2.3 nM): 10 µM
molar excess at maximum inhibition ([5]; Fn 2.3 nM): 5,000
molar excess over Fn at 50% inhibition ([5]; Fn 2.3 nM): 325
IC50 ([5]; Fn 100 ng (2.3 nM), fibrin 200 ng, read-out: concentration decreasing Fn binding to fibrin to 50%): 750 nM
maximum inhibition of Fn binding to fibrin [5]: 70%

binding to fibrin-Sepharose [1]: did not bind
inhibition of the binding of Fn to fibrin (non-binding modules) ([5]; up to 5,000-50,000 molar excess compared to Fn): < 20%
Substance: ^7 F1: recombinant seventh type 1 module from human fibronectin, residues 434-484 of SEQ ID NO:1 [reference compound]

Substance: ^10 F1-end: 25 kDa recombinant protein from COS cells commencing in the tenth type 1 module and extending to the end of fibronectin
relative affinity for fibrin [4]: higher relative affinity
% of bound protein released by warming to 22° C. [4, 7]: 35%
% of bound protein requiring 6M urea in 0.5M NaCl for elution [4, 7]: 65%

binding to fibrin-Sepharose [1]: did not bind
inhibition of biotinylated Fn binding (non-fibrin-binding modules) ([3]; 0-10 μM competitor, biotinylated Fn 2.3 nM): 10%
Substance: ^10 F1: recombinant 46 amino acid tenth type 1 module from human fibronectin, residues 2141-2186 of SEQ ID NO:1 [reference compound]
fibrin binding as single module [3]: did not, as a single module, exhibit fibrin-binding

Substance: egg lysozyme: unrelated protein employed as negative control
displacement of bound 125I-11 kDa FBP [6]: unable to disrupt; also recorded: unable to displace

amount giving maximum binding per 550 ng of fibrin [2]: approximately 500 ng
concentration at saturation of binding to fibrin ([2]; 200 ng Fn to 200 ng of fibrin (5.88 nM)): ~4.54 nM
moles per mole of fibrin required to achieve maximum binding ([2]; assuming 340 kDa fibrin hexamer, 440 kDa Fn dimer): 0.8
concentration required for complete inhibition of biotinylated Fn binding ([3]; biotinylated Fn 2.3 nM): 2.2 µM
IC50 ([3]; biotinylated Fn 2.3 nM): 20 nM
Substance: fibronectin: purified intact human plasma fibronectin, 440 kDa dimer [reference compound]
binding to fibrin-coated wells [2]: bound to the fibrin-coated wells in a concentration dependent manner
molar excess required for complete inhibition ([3]; biotinylated Fn 2.3 nM): 1000

maximum inhibition of Fn binding to fibrin [5]: 55%
Substance: t-PA type 1 module: single type 1 module from tissue plasminogen activator (CRDEKTQMIYQQHQSWLRPVLRSNRVEYCWCNSGRAQCH) [reference compound]
